In patent US12344862B2, “Human intestinal epithelium model and method for preparing same” (KOREA RESEARCH INSTITUTE OF BIOSCIENCE AND BIOTECHNOLOGY, priority 2020, dated 2025):

How the values were obtained:
[1] = tested on: Wnt pathway and the Notch pathway; assay: qPCR of ATOH1, HES1, AXIN2, CTNNB1 during differentiation of hIEC progenitors into functional hIECs; type: cell-based, human; conditions: 2 μM Wnt-059 and 1 mM valproic acid together in hIEC differentiation medium 2; functional vs immature hIECs; FIG. 7
Source text: To identify effects of Wnt-059 and valproic acid, which belong to the components of the hIEC differentiation medium 2 in Example 2, on the Wnt pathway and the Notch pathway during differentiation of hIEC progenitors into functional hIECs, expression levels of ATOH1, HES1, AXN2, and CTNNB1 genes in human small intestine (hSI) tissue, immature hIECs, and functional hIECs were checked through qPCR analysis. Here, inactivation of the Wnt pathway and activation of the Notch pathway inhibited differentiation of ISCs into secretory cells. qPCR was performed in the same manner as in Experimental Example 1, and the primers used are shown in Table 3 below.

[2] = in vitro; type: in vitro ADME, human; conditions: human
Procedure: (§1) The cells were prepared in the same manner as in Experimental Example 6.1. The functional hIECs and the Caco-2 cell line were washed 3 times with a transport buffer. […] The concentration of each compound in the sample was analyzed using LC-MS/MS. The apparent permeability coefficient was calculated according to the following equation. [formula] In the equation, dQ/dt, A, and C0 represent a transport rate, a surface area of the insert, and an initial concentration of the compound in the donor compartment, respectively. Chromatographic quantification of each compound was performed using an LC-tandem mass spectrometry system equipped with Shimadzu Prominence UPLC system (Shimadzu, Kyoto, Japan) and API 2000 QTRAP mass spectrometer (Applied Biosystems, Foster City, CA, USA). […] Then, an aliquot (10 μl) of the supernatant was injected directly into the LC-MS/MS system. Separation was performed using a Waters XTerra MS C18 column (2.1×50 mm, 5 μm, Milford, MA, USA) with a concentration gradient of 0.1% formic acid in acetonitrile and 0.1% formic acid in water at a flow rate of 0.4 ml/min. Transitions were made as follows to detect the analyte: […]

[3] = tested on: Caco-2 cell line; assay: in vitro; type: in vitro ADME, human
Procedure: as §1

[4] = tested on: functional hIECs; assay: in vitro; type: in vitro ADME, human; conditions: Caco-2
Procedure: as §1

[5] = tested on: hPSCs; assay: qPCR of intestinal epithelial marker genes during differentiation of hPSCs into hIEC progenitors; type: cell-based, human; conditions: component of hIEC differentiation medium 1; FIG. 2
Procedure: In Example 1, to identify effects, on differentiation of the hPSCs into the hIEC progenitors, of R-spondin 1, which is an agonist of Wnt signaling, and insulin in composition of the hIEC differentiation medium 1, expression levels of marker genes related to intestinal epithelial cells were checked through qPCR analysis. Specifically, total RNA and cDNA were prepared using RNeasy kit (Qiagen) and Superscript IV cDNA synthesis kit (Thermo Fisher Scientific Inc.), respectively. qPCR was performed using a 7500 Fast real-time PCR system (Applied Biosystems, Foster City, CA, USA).

Molecule | Papp A→B at 2 h [2] | Papp A→B at 2 h ([2]; Caco-2) | also measured
Cc1cc(-c2ccc(CC(=O)Nc3ccc(-c4cccnc4)cc3)cc2)ccn1 [Wnt-059, Wnt C-59] | – | – | effect on Wnt pathway and Notch pathway (qPCR of ATOH1, AXIN2, CTNNB1, HES1) [1]: inhibited the Wnt pathway and activated the Notch pathway
CCCC(CCC)C(=O)O [valproic acid] | – | – | effect on Wnt pathway and Notch pathway (qPCR of ATOH1, AXIN2, CTNNB1, HES1) [1]: inhibited the Wnt pathway and activated the Notch pathway
insulin: hormone secreted from beta cells of the islet of Langerhans; component of hIEC differentiation medium 1 | – | – | effect on expression of intestinal epithelial marker genes (qPCR) [5]: increased expression of VIL1 and ANPEP
R-spondin 1: secreted protein encoded by Rspo1 gene, can promote Wnt/β catenin signals; agonist of Wnt signaling (protein, UniProt Q2MKA7 21-263, looked up) R-spondin-1: SRGIKGKRQRRISAEGSQACAKGCELCSEVNGCLKCSPKLFILLERNDIRQVGVCLPSCPPGYFDARNPDMNKCIKCKIEHCEACFSHNFCTKCKEGLYLHKGRCYPACPEGSSAANGTMECSSPAQCEMSEWSPWGPCSKKQQLCGFRRGSEERTRRVLHAPVGDHAACSDTKETRRCTVRRVPCPEGQKRRKGGQGRRENANRNLARKESKEAGAGSRRRKGQQQQQQQGTVGPLTSAGPA | – | – | effect on expression of intestinal epithelial marker genes (qPCR) [5]: increased expression of markers of major cell types in the intestinal epithelium

The next lines start with results.

Papp A→B at 2 h [2] | Papp A→B at 2 h ([2]; Caco-2) | Molecule | also measured
9.82 ± 0.04 ×10⁻⁶ cm/s | 36.2 ± 1.49 ×10⁻⁶ cm/s | O=C(O)Cc1ccccc1Nc1c(Cl)cccc1Cl [diclofenac] | –
11.1 ± 1.15 ×10⁻⁶ cm/s | 36.5 ± 1.09 ×10⁻⁶ cm/s | COCCc1ccc(OCC(O)CNC(C)C)cc1 (centres unmarked) [metoprolol] | –
11 ± 1.28 ×10⁻⁶ cm/s | 32.3 ± 2.61 ×10⁻⁶ cm/s | CC(C)NCC(O)COc1cccc2ccccc12 (centres unmarked) [propranolol] | Fintestine (fraction absorbed in the human intestine) estimated from Papp [3]: 0.98; Fintestine (fraction absorbed in the human intestine) estimated from Papp [4]: 0.78
6.98 ± 0.66 ×10⁻⁶ cm/s | 0.98 ± 0.02 ×10⁻⁶ cm/s | CNC(=C[N+](=O)[O-])NCCSCc1ccc(CN(C)C)o1 [ranitidine] | –
